Where “and” joins values, the source holds several entries; their conditions need not be identical. Equal entries are not always repeated. Where two headings read alike, the source gives them in different places.
What was measured:
menin = biological target: T1, menin (Homo sapiens, UniProt O00255, T541A); experiment: Menin/MLL fluorescence polarization (FP) assay; format: binding
T1 sequence (O00255 with tags, fused parts or gaps T541A): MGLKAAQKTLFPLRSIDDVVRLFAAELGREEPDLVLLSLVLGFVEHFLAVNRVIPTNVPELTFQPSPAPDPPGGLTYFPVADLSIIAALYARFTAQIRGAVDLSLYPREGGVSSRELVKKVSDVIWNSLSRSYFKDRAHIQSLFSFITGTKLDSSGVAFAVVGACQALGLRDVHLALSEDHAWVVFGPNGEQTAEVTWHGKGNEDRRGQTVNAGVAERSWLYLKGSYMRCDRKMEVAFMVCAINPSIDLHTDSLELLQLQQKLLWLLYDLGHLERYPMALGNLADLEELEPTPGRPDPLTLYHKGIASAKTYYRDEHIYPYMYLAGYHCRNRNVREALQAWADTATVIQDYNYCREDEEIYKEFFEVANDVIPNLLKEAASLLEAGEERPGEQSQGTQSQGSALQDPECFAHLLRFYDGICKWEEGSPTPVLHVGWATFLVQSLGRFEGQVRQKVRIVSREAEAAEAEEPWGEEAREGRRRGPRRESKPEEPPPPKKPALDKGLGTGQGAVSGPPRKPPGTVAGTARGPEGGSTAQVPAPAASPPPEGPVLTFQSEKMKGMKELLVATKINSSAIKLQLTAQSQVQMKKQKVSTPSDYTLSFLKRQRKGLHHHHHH
Experimental: 1) Menin/MLL Fluorescence Polarization Assay
To a non-surface binding, black 384-well microtiter plate was added 50 nL 160× test compound in DMSO and 4 μL 2× menin in assay buffer (40 mM Tris·HCl, pH 7.5, 50 mM NaCl, 1 mM DTT and 0.001% Tween 20). After incubation of test compound and menin for 10 min at ambient temperature, 4 μL 2×FITC-MBM1 peptide (FITC-β-alanine-SARWRFPARPGT-NH2 (SEQ ID NO: 2)) in assay buffer was added, the microtiter plate centrifuged at 1000 rpm for 1 min and the assay mixtures incubated for 15 min at ambient temperature. The relative amount of menin·FITC-MBM1 complex present in an assay mixture is determined by measuring the fluorescence polarization (FP) of the FITC label with a BMG Pherastar plate reader (ex. 485 nm/em. 520 nm) at ambient temperature. The final concentrations of reagents in the binding assay are 100 nM menin, 5 nM FITC-MBM1 peptide and 0.625% DMSO in assay buffer. Dose-response titrations of test compounds are conducted using an 11 point, three-fold serial dilution scheme, starting at 31 μM.
Compound potencies were determined by first calculating % inhibition at each compound concentration according to equation 1: % inhibition=((HC−LC)−(FP^compound−LC))/(HC−LC))*100 (Eqn 1)
Where LC and HC are the FP values of the assay in the presence or absence of a saturating concentration of a compound that competes with FITC-MBM1 for binding to menin, and FP^compound is the measured FP value in the presence of the test compound. HC and LC FP values represent an average of at least 16 replicates per plate. […] 2) Proliferation Assay

MV-4-11 = experiment: Proliferation assay (spheroid assay) MV-4-11; format: cell-based, human
Experimental: (§1) The anti-proliferative effect of menin/MLL protein/protein interaction inhibitor test compounds was assessed in human leukemia cell lines. The cell lines MV-4-11 and MOLM14 harbor MLL translocations and express the MLL fusion proteins MLL-AF4 and MLL-AF9, respectively, as well as the wildtype protein from the second allele. […] K562 and KG1 were used as a control cell lines containing two MLL wildtype alleles in order to exclude compounds that display general cytotoxic effects.
(§2) MV-4-11 and MOLM14 were cultured in RPMI-1640 (Sigma Aldrich) supplemented with 10% fetal bovine serum (HyClone), 2 mM L-glutamine (Sigma Aldrich) and 50 μg/ml gentamycin (Gibco). K562 were propagated in RPMI-1640 (Sigma Aldrich) supplemented with 20% fetal bovine serum (HyClone), 2 mM L-glutamine (Sigma Aldrich) and 50 μg/ml gentamycin (Gibco). KG1 were cultured in Iscove's MDM (Gibco) supplemented with 20% fetal bovine serum (HyClone), 2 mM L-glutamine (Sigma Aldrich) and 50 μg/ml gentamycin (Gibco).
(§3) In order to assess the anti-proliferative effects, 1,500 MV-4-11, 300 MOLM14, 750 K562 or 1,300 KG1 cells were seeded in 200 μl media per well in 96-well round bottom, ultra-low attachment plates (Costar, catalogue number 7007). Cell seeding numbers were chosen based on growth curves to ensure linear growth throughout the experiment. Test compounds were added at different concentrations and the DMSO content was normalized to 0.3%. Cells were incubated for 8 d at 37° C. and 5% CO2. Spheroid like growth was monitored in real-time by live-cell imaging (IncuCyteZOOM, Essenbio, 4× objective) acquiring one image every four hours for 8 d. Confluence (%) as a measure of spheroid size was determined using an integrated analysis tool.
(§4) In order to determine the cumulative effect of the test compounds over time, the area under the curve (AUC) in a plot of confluence against time was calculated. Confluence at the beginning of the experiment (t=0) was used as baseline for the AUC calculation.
(§5) Absolute IC50 values were calculated according to the following procedure: % Control=(AUC sample/AUC control)*100 AUC control=mean AUC of control values (cells without compound/DMSO as vehicle control)
(§6) A non-linear curve fit was applied using the least squares (ordinary) fit method to the plot of % control versus compound concentration. Based on this, the absolute IC50 value (half maximal inhibitory concentration of the test compound causing an anti-proliferative effect of 50% relative to the vehicle control) was calculated.

MOLM14 = experiment: Proliferation assay (spheroid assay) MOLM14; format: cell-based, human
Experimental: as §1, §2, §3, §4, §5, §6

[1] = averaged values over all measurements, read-out: Menin FP assay (IC50 (μM))
[2] = Homo sapiens, MV4-11, MV-4-11, averaged values, read-out: Spheroid assay MV-4-11 (IC50 (μM))
[3] = Homo sapiens, MOLM-14, MOLM14, averaged values, read-out: Spheroid assay MOLM14 (IC50 (μM))
[4] = 100 nM menin, 5 nM FITC-MBM1 peptide, individual measurements (not averaged), read-out: (1) Menin FP assay (IC50 (μM))
[5] = MOLM14 (MLL-AF9), 8 d, absolute IC50 from AUC of confluence, individual measurements (not averaged), read-out: (2) Spheroid assay MOLM14 (IC50 (μM))

SMILES | IC50 (menin; [1]) [µM] | IC50 (MV-4-11; [2]) [µM] | IC50 (MOLM14; [3]) [µM] | other results
C[C@@H](c1cnn(C)c1)N1CC2(CCN(c3ncnc4sc(CC(F)(F)F)cc34)C2)C1 [Compound 199] | 0.41 | 12.9 | > 15 | –
Cn1cncc1CN1CC2(CCN(c3ncnc4sc(CC(F)(F)F)cc34)C2)C1 [Compound 23] | 0.95 | – | – | –
CC(c1cnn(C)c1)N1CC2(CCN(c3ncnc4sc(CC(F)(F)F)cc34)C2)C1 (centres unmarked) [Compound 197] | 0.3 | 7.3 | > 15 | –
C[C@H](c1cnn(C)c1)N1CC2(CCN(c3ncnc4sc(CC(F)(F)F)cc34)C2)C1 [Compound 198] | 0.14 | 5.1 | 12.4 | –
FC(F)(F)Cc1cc2c(N3CC4(CN(Cc5cn[nH]c5)C4)C3)ncnc2s1 [Compound 40] | 0.84 | – | – | –
Cn1ccc(CN2CC3(CCN(c4ncnc5sc(CC(F)(F)F)cc45)C3)C2)n1 [Compound 35] | 0.99 | – | – | –
CC(C)n1cc(CN2CC3(CCN(c4ncnc5sc(CC(F)(F)F)cc45)C3)C2)cn1 [Compound 36] | 0.4 | – | – | –
FC(F)(F)Cc1cc2c(N3CCC4(CN(Cc5ccnnc5)C4)C3)ncnc2s1 [Compound 4] | 0.73 | – | – | –
FC(F)(F)Cc1cc2c(N3CC4(CN(Cc5ccccc5)C4)C3)ncnc2s1 [Compound 14] | 0.11 | 2.2 | 4.9 | –
CC(C)NCCNC(=O)C(c1ccccc1)N1CC2(CCN(c3ncnc4sc(CC(F)(F)F)cc34)C2)C1 (centres unmarked) [Compound 74] | 0.12 | 2 | 6.1 | –
Cn1cc2c(n1)CCCC2N1CC2(CCN(c3ncnc4sc(CC(F)(F)F)cc34)C2)C1 (centres unmarked) [Compound 133] | 0.12 | 2.1 | > 15 | –
Cn1ccc(CN2CC3(C2)CN(c2ncnc4sc(CC(F)(F)F)cc24)C3)n1 [Compound 34] | 0.72 | – | – | –
Cc1ccc(CN2CC[C@]3(CCN(c4ncnc5sc(CC(F)(F)F)cc45)C3)C2)cc1 (single isomer, unassigned) [Compound 290] | – | 0.47 | 1.2 | –
CC(C)CN1CC2(C1)CN(c1ncnc3sc(CC(F)(F)F)cc13)C2 [Compound 44] | – | 4.1 | > 15 | –
CCN1CC(C(C(C)C)N2CC3(CCN(c4ncnc5sc(CC(F)(F)F)cc45)C3)C2)C1 (centres unmarked) [Compound 303] | – | 0.32 | 1.02 | –
FC(F)(F)Cc1cc2c(N3CCC4(CN(Cc5ccc[nH]5)C4)C3)ncnc2s1 [Compound 25] | 0.31 | 3.8 | 7.2 | –
OCCn1cccc1CN1CC2(CCN(c3ncnc4sc(CC(F)(F)F)cc34)C2)C1 [Compound 24] | 0.49 | 9.1 | > 15 | –
FC(F)(F)Cc1cc2c(N3CCC4(CN(Cc5cn[nH]c5)C4)C3)ncnc2s1 [Compound 29] | – | – | – | IC50 (menin; [4]): 0.346 µM; IC50 (MV-4-11; MV-4-11 (MLL-AF4), 8 d, absolute IC50 from AUC of confluence, individual measurements (not averaged), read-out: (2) Spheroid assay MV-4-11 (IC50 (μM))): 1.8 µM and > 15 µM and 9.9 µM; IC50 (MOLM14; Homo sapiens, MOLM-14, 192 h, MOLM14 (MLL-AF9), 8 d, absolute IC50 from AUC of confluence, individual measurements (not averaged), read-out: (2) Spheroid assay MOLM14 (IC50 (μM))): 10.8 µM; IC50 (MOLM14; [5]): > 15 µM
Cn1cc(C(CN)N2CC3(CCN(c4ncnc5sc(CC(F)(F)F)cc45)C3)C2)cn1 (centres unmarked) [Compound 195] | 1.07 | – | – | –

SMILES | IC50 (menin; [1]) [µM] | IC50 (MV-4-11; [2]) [µM] | IC50 (MOLM14; [3]) [µM] | other results
FC(F)(F)Cc1cc2c(N3CCC4(CN(Cc5ccncn5)C4)C3)ncnc2s1 [Compound 9] | 0.84 | – | – | –
FC(F)(F)Cc1cc2c(N3CCC4(CN(Cc5cnc(Cl)cn5)C4)C3)ncnc2s1 [Compound 8] | 0.79 | – | – | –
FC(F)(F)Cc1cc2c(N3CCC4(CN(Cc5cncc(Cl)n5)C4)C3)ncnc2s1 [Compound 11] | 0.76 | – | – | –
Cc1nc(N2CCCC3(CCN(Cc4ccccc4)C3)C2)c2cc(CC(F)(F)F)sc2n1 (centres unmarked) [Compound 19] | 0.81 | – | – | –
Cn1cc(CN2CC3(CCN(c4ncnc5sc(CC(F)(F)F)cc45)C3)C2)cn1 [Compound 30] | 0.53 | 9.2 | > 15 | –
O=C([C@@H]1CC(F)(F)CN1)N1CC2(C1)CN(c1ncnc3sc(CC(F)(F)F)cc13)C2 [Compound 90] | 0.11 | 11.1 | > 15 | –
[CH3][Ge]([CH3])([CH3])[CH2]N1CC2(CCN(c3ncnc4sc(CC(F)(F)F)cc34)C2)C1 [Compound 31] | 0.087 | – | – | –
FC(F)(F)Cc1cc2c(N3CC4(CN(Cc5cc[nH]n5)C4)C3)ncnc2s1 [Compound 41] | 0.63 | – | – | –
O=C([C@@H]1C[C@@H](F)CN1)N1CC2(C1)CN(c1ncnc3sc(CC(F)(F)F)cc13)C2 [Compound 89] | 0.045 | 1.3 | 10.5 | –
Cn1cc2c(n1)CCCC2N1CC2(CCN(c3ncnc4sc(CC(F)(F)F)cc34)C2)C1 (single isomer, unassigned) [Compound 137] | – | 10.1 | > 15 | –
Cn1cc(CN2CC[C@@]3(CCN(c4ncnc5sc(CC(F)(F)F)cc45)C3)C2)cn1 (single isomer, unassigned) [Compound 295] | – | 1.16 | 6.7 | –
Cn1cc([C@@H](C2CCNCC2)N2CC3(CCN(c4ncnc5sc(CC(F)(F)F)cc45)C3)C2)cn1 [Compound 201] | – | 12.7 | > 15 | –
O=C(NCCO)C(c1ccccc1)N1CC2(CCN(c3ncnc4sc(CC(F)(F)F)cc34)C2)C1 (centres unmarked) [Compound 75] | 2.36 | – | – | –
Cn1cc(CN2CC3(C2)CN(c2ncnc4sc(CC(F)(F)F)cc24)C3)cn1 [Compound 28] | – | – | – | IC50 (menin; [4]): 0.517 µM; IC50 (MOLM14; [5]): 3.2 µM and > 15 µM
FC(F)(F)Cc1cc2c(N3CCC4(CN(Cc5cncnc5)C4)C3)ncnc2s1 [Compound 10] | 2.31 | – | – | –
OCc1ccccc1CN1CC2(CCN(c3ncnc4sc(CC(F)(F)F)cc34)C2)C1 [Compound 57] | – | 4.2 | 8.6 | –
Cc1ccc(CN2CC[C@@]3(CCN(c4ncnc5sc(CC(F)(F)F)cc45)C3)C2)cc1 (single isomer, unassigned) [Compound 289] | – | 0.21 | 1.3 | –
FC(F)(F)Cc1cc2c(N3CCC4(CN(Cc5cnc6ccccn56)C4)C3)ncnc2s1 [Compound 7] | 0.73 | – | – | –

— patent publication US12084462B2, “Spiro bicyclic inhibitors of menin-MLL interaction” (Janssen Pharmaceutica NV, priority 2016, dated 2024)
